The text below walks through data of US7919133B2, “Substituted cyclopropanecarboxylic acid (3-methyl-cyclohexyl)amide as flavoring substance” (SYMRISE GmbH & Co. KG, priority 2007, dated 2011).

For assay [1] the following is noted: among substituted benzoic amides of WO 2006/099762; cited from earlier work.
Assay [2] can be described thus: Tasting in the applicant's own investigations. The settings on record: for Umami-properties: in vivo. Type of assay: in vivo.
The nature of assay [3]: Panel tasting in 0.5% American beef extract / beef broth as base (FIG. 1, scores 0 to 6). Format: in vivo. The source says:
In spider diagram attached as FIG. 1, American beef broth is exemplarily compared as a base, with firstly such a base with an addition of 5 ppm of mixture of cyclopropanecarboxylic acid-((1S,2S,5R)-2-isopropyl-5-methyl-cyclohexyl)-amide (11) and Cyclopropanecarboxylic acid-((1R,2R,5S)-2-isopropyl-5-methyl-cyclohexyl)-amide (12) (mixing ratio of 1:1) and secondly with such a base with an addition of 0.05 wt.-% of MSG.
With the aid of tasting by a panel of trained subjects, the taste of a 0.5% American beef extract as base (light grey line) was compared with the taste of firstly, such a base, to which 5 ppm of mixture consisting of cyclopropanecarboxylic acid-((1S,2S,5R)-2-isopropyl-5-methyl-cyclohexyl)amide (11) and cyclopropanecarboxylic acid-((1R,2R,5S)-2-isopropyl-5-methyl-cyclohexyl)amide (12) was added (solid line), and secondly such a base, to which 0.05 wt.-% of MSG was added (broken line).
The subjects rated the strength of the stated trend of taste by ranking of scores on a scale from 0 (no corresponding taste) to 6 (very strong corresponding taste). The average values of respective scores are illustrated.

The conditions of assay [4]: as given in US 2004/0202760 and US 2004/0202619; cited from earlier work.

Regarding `COC(=O)c1ccc(C(=O)NC2CC(C)CCC2C(C)C)cc1` (centres unmarked), the cooling effect result in assay [1] is given as “strongest ascertained cooling effect”.
With `CC(C)[C@@H]1CC[C@@H](C)C[C@@H]1NC(=O)C1CC1` [(11), Cyclopropanecarboxylic acid-((1S,2S,5R)-2-isopropyl-5-methyl-cyclohexyl)amide], the Umami-properties entry in assay [2] was “interesting and strong Umami-properties”.
Consider `CC(C)[C@H]1CC[C@H](C)C[C@H]1NC(=O)C1CC1` [(12), Cyclopropanecarboxylic acid-((1R,2R,5S)-2-isopropyl-5-methyl-cyclohexyl)amide], for which the Umami-properties result in assay [2] was “interesting and strong Umami-properties”.
In the case of `O=C(NC1CCCCC1)C1CC1` [Cyclopropanecarboxylic acid cyclohexyl amide], the taste rating entry in assay [2] (tasting in own investigations) is “taste-neutral”. The “creating or enhancing of an Umami taste impression” value in assay [3] is “no creating or enhancing of an Umami taste impression could be verified”.
Consider `CC/C=C\CC/C=C/C(=O)NC1CC1` [N-cyclopropyl-E2,Z6-nonadiene amide], for which the sensory impression entry in assay [4] is given as “effect similar to MSG”.
As for `CCCCC/C=C\CC/C=C/C(=O)NCC` [N-ethyl-E2,Z6-dodecadiene amide], the sensory impression result in assay [4] is listed as “effect similar to MSG”.
On to `CC/C=C\CC/C=C/C(=O)NCC` [N-ethyl-E2,Z6-nonadiene amide], for which the sensory impression result in assay [4] is “effect similar to MSG”.
